# Where two headings read alike, the source gives them in different places.
# Key:
# HIV 3B = test: Anti-HIV testing: protection of MT4 cells from virus induced cytopathic effect (MTT uptake); assay type: cell-based, HIV-1; conditions: for Antiviral Activity: % Protection: MT4 cells, HIV 3B, 5 days, 37° C.
# Description: (§1) The sample, considered of adequate quality for antiviral testing is assayed as follows:
# (§2) The assays are carried out in 96 well (microtitre) panels using the MT4 cell line, infe3cted with IOTCID50 of HIV 3B. The antiviral activity and cytotoxicity of each compound is assayed simultaneously. Three compounds are screened on each panel. Each compound is tested at 100.0, 10.0, 1.0 and 0.1 μM, unless otherwise stated. AZT is included in each assay as a positive control at 10.0, 1.0, 0.1 and 0.01 μM.
# (§3) The antiviral activity (in infected cells) and cytotoxicity (to uninfected cells) of each compound is determined by measuring the number of viable cells remaining after 5 days incubation of 37° C. and comparing them with infected or uninfected controls. The number of viable cells is determined by the addition of the tetrazolium dye MTT. […] Following MTT addition, the cells are solubilised with acidified isopropanol and the extent of MTT conversion is measured spectrophotometrically.
# Antiviral activity is apparent through the ability of compounds to protect the cells from virus induced cytopathic effect. The result is reported as the percentage of cells protected at a given drug concentration.
# [1] = Cytotoxicity to uninfected MT4 cells (MTT uptake); assay type: cell-based; conditions: human
# Description: as §1, §2, §3
smiles,measurement,setting,value
"Cc1cn([C@H]2C[C@H](N=[N+]=[N-])[C@@H](COP(=O)(OC[C@H]3O[C@@H](n4cc(C)c(=O)[nH]c4=O)C[C@@H]3N=[N+]=[N-])Oc3ccc(S(C)(=O)=O)cc3)O2)c(=O)[nH]c1=O [BTG 1704, 4-(methylsulphonyl)phenyl bis (3'-azido thymidin-5'-yl) phosphate]",Antiviral Activity: % Protection,HIV 3B; 0.001 μM,9%
same,Antiviral Activity: % Protection,HIV 3B; 0.01 μM,21%
same,Antiviral Activity: % Protection,HIV 3B; 0.1 μM,91%
same,Antiviral Activity: % Protection,HIV 3B; 1.0 μM,91%
same,Antiviral Activity: % Protection,HIV 3B; 10 μM,79%
same,Antiviral Activity: % Protection,HIV 3B; 100 μM,13%
same,protection of MT4 cells from HIV-1 cytopathic effect,HIV 3B; concentrations between 0.1 and 10 μM,significant protection
same,MCC at 120 h,"[1]; estimated, not a quantitative test for cytotoxicity, read-out: toxic concentration of the drug",~100 µM
same,MCC at 120 h,"[1]; uninfected MT4 cells, 5 days, 37° C., read-out: MTC",100 µM

# — patent US5585364A, “Antiviral compounds” (British Technology Group Limited, priority 1989, dated 1996)
